Converted amounts (≈) assume the structure as drawn.
How the values were obtained:
[1] = test system: Mycobacterium tuberculosis; experiment: Antimycobacterial activity against Mycobacterium tuberculosis H37Rv after 24 hrs by REMA method; format: functional
[2] = target: T1, Decaprenylphosphoryl-beta-D-ribose oxidase (Mycobacterium tuberculosis (strain ATCC 25618 / H37Rv), UniProt P9WJF1); experiment: Inhibition of N-terminal His6-thioredoxin tagged Mycobacterium tuberculosis H37Rv DprE1 expressed in Escherichia coli BL21(DE3) using FPR as substrate by resazurin dye-based fluorescence assay
T1 sequence (P9WJF1 whole entry): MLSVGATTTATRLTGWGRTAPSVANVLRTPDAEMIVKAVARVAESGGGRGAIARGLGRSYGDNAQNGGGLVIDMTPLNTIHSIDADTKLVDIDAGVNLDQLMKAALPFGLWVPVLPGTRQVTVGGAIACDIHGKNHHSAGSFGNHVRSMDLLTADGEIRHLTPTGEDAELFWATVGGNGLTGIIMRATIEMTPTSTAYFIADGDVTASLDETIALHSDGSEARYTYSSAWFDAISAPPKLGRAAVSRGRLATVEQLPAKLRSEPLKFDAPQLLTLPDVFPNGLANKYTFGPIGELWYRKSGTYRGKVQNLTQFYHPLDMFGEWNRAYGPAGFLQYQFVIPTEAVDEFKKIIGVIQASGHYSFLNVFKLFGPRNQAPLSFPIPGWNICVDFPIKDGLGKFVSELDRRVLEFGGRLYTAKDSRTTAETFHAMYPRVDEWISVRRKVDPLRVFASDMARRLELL

[3] = test system: Mycobacterium tuberculosis; experiment: Antimycobacterial activity against Mycobacterium tuberculosis in 7H9 medium; format: functional, organism-based
[4] = test system: Mycobacterium tuberculosis; experiment: Antimycobacterial activity against Mycobacterium tuberculosis in biofilm medium; format: functional, organism-based
[5] = test system: Mycobacterium tuberculosis; experiment: Antimycobacterial activity against GFP-fused Mycobacterium tuberculosis H37Rv by resazurin dye-based micro-broth dilution method; format: functional
[6] = test system: Mycobacterium tuberculosis; experiment: Antimycobacterial activity against GFP-fused Mycobacterium tuberculosis H37Rv after 7 days by fluorescence assay; format: functional; details: 168 h
[7] = test system: Mycobacterium tuberculosis; experiment: Antimycobacterial activity against Mycobacterium tuberculosis H37Rv after overnight incubation by REMA method; format: functional
[8] = target: T1, Decaprenylphosphoryl-beta-D-ribose oxidase; experiment: Inhibition of Mycobacterium tuberculosis H37Rv DprE1
[9] = test system: Mycobacterium tuberculosis; experiment: Antimycobacterial activity against Mycobacterium tuberculosis after 5 days by turbidity assay; format: functional; details: 120 h
Cytochrome P450 2C9 = Cytochrome P450 2C9 (Homo sapiens, UniProt P11712); experiment: Inhibition of CYP2C9 in human liver microsomes using diclofenac as substrate after 30 mins by in presence of NADPH by LC-MS/MS analysis; format: ADME
Chain of Cytochrome P450 2C9 (P11712 whole entry, the tested form may be a part): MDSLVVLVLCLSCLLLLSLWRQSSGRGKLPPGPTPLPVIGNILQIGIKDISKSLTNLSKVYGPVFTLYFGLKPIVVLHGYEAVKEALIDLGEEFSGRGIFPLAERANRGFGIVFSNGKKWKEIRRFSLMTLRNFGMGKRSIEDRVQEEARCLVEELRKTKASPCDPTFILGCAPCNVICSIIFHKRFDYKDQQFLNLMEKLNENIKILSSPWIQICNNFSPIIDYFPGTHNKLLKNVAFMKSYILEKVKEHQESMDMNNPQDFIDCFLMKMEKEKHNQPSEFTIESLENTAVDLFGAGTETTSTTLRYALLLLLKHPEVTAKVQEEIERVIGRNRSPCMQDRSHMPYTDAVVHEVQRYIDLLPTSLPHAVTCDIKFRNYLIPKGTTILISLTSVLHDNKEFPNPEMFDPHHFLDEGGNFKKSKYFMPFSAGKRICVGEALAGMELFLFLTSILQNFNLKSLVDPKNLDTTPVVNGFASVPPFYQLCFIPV

[10] = test system: Mycobacterium tuberculosis; experiment: Antimycobacterial activity against recombinant GFP-fused Mycobacterium tuberculosis H37Rv after 10 days by resazurin dye-based assay; format: functional; details: 240 h
[11] = test system: Mycobacterium tuberculosis; experiment: Bactericidal activity against recombinant GFP-fused Mycobacterium tuberculosis H37Rv by resazurin dye-based assay; format: functional
[12] = target: T1, Decaprenylphosphoryl-beta-D-ribose oxidase; experiment: Inhibition of Mycobacterium tuberculosis H37Rv DprE1 using FPR as substrate preincubated for 6.5 hrs followed by substrate addition by resazurin dye-based spectrofluorimetric analysis
[13] = target: T2, Decaprenylphosphoryl-beta-D-ribose oxidase (Mycobacterium tuberculosis (strain ATCC 25618 / H37Rv)) (UniProt P9WJF1); experiment: Ratio of IC50 for inhibition of Mycobacterium tuberculosis H37Rv DprE1 using FPR as substrate in presence of SAM by resazurin dye-based spectrofluorimetric analysis to IC50 for inhibition of Mycobacterium tuberculosis H37Rv DprE1 using FPR as substrate in absence of SAM by resazurin dye-based spectrofluorimetric analysis
T2 sequence (whole entry): T1 sequence (P9WJF1 whole entry)

[14] = Inhibition of Mycobacterium tuberculosis DprE1 using FPR as substrate by resazurin dye-based fluorescence assay
[15] = Binding affinity to Mycobacterium tuberculosis DprE1
[16] = target: T2, Decaprenylphosphoryl-beta-D-ribose oxidase (Mycobacterium tuberculosis (strain ATCC 25618 / H37Rv)); experiment: Inhibition of Mycobacterium tuberculosis H37Rv DprE1 at 50 uM relative to control
[17] = target: T2, Decaprenylphosphoryl-beta-D-ribose oxidase (Mycobacterium tuberculosis (strain ATCC 25618 / H37Rv)); experiment: Inhibition of GFP-fused Mycobacterium tuberculosis H37Rv DprE1 after 72 hrs by fluorescence assay
[18] = test system: Mycobacterium tuberculosis; experiment: Antimycobacterial activity against Mycobacterium tuberculosis H37Rv infected in human primary macrophages assessed as reduction in colony forming unit at 5 uM after 2 hrs followed by compound wash out and measured after 7 days by serial dilution method relative to control; format: functional
[19] = test system: Mycobacterium tuberculosis; experiment: Antimycobacterial activity against Mycobacterium tuberculosis H37Rv infected in C57BL/6 mouse primary macrophages assessed as reduction in colony forming unit at 5 uM after 2 hrs followed by compound wash out and measured after 7 days by serial dilution method relative to control; format: functional

C[C@H]1COC2(CCN(c3nc(=O)c4cc(C(F)(F)F)cc(-n5cccc5)c4s3)CC2)O1
MIC [1]: 0.16 µg/mL (≈ 0.354 µM)

CCOC(=O)NC(=O)c1ccsc1NC(=O)c1ccn2cnnc2c1
IC50 [2]: 60 nM

CCOC(=O)NC(=O)c1ccsc1NC(=O)c1nc2ccccc2s1
IC50 [3]: 0.19 µg/mL (≈ 0.506 µM) | IC50 [4]: 0.01 µg/mL (≈ 0.0266 µM)

CC[C@@H](CO)NCCN[C@@H](CC)CO [ETHAMBUTOL]
MIC [5]: 1000 to 5000 µg/mL (≈ 4890 to 24500 µM)

O=C(NCCOCc1ccccc1)c1cc([N+](=O)[O-])cc([N+](=O)[O-])c1
MIC [6]: 0.2 µM (≈ 0.0691 µg/mL)

COc1ccc(CNc2nc3cc(C(F)(F)F)ccc3nc2C(=O)O)cc1F
MIC99 [7]: 6.3 to 12.5 µM (≈ 2.49 to 4.94 µg/mL) | IC50 [8]: 80 nM

O=C(NCCOCc1cccc(Cl)c1)c1cc([N+](=O)[O-])cc([N+](=O)[O-])c1
MIC [6]: 1 µM (≈ 0.38 µg/mL)

Cc1ccc(C(F)(F)F)cc1CNCc1cc2c(C(C)C)nn(-c3ccccc3)c2[nH]c1=O
MIC [9]: 0.4 µM (≈ 0.182 µg/mL)

O=C(O)c1nc2ccc(C(F)(F)F)cc2nc1NCc1ccc(Cl)cc1
MIC99 [7]: 3.1 µM (≈ 1.18 µg/mL) | IC50 [8]: 50 nM

Cc1nc2cc(C(F)(F)F)cc([N+](=O)[O-])c2nc1-c1ccccc1
MIC [7]: 0.75 µM (≈ 0.25 µg/mL)

O=C(NCCOCc1ccccc1F)c1cc([N+](=O)[O-])cc([N+](=O)[O-])c1
MIC [6]: 0.08 µM (≈ 0.0291 µg/mL)

Cc1ccc(C(F)(F)F)cc1CNCc1cc2c(C3CC3)nn(-c3ccccc3)c2[nH]c1=O
MIC [9]: 0.1 µM (≈ 0.0452 µg/mL)

COc1ccc(O[C@H]2CCN(C(=O)c3cc([N+](=O)[O-])cc([N+](=O)[O-])c3)C2)cc1
MIC [6]: 20 µM (≈ 7.75 µg/mL)

Cc1ccc(C(F)(F)F)cc1CNCc1cc2c(C)nn(-c3ccccc3)c2[nH]c1=O
MIC [9]: 0.8 µM (≈ 0.341 µg/mL)

COc1ccc(O[C@H]2CCCN(C(=O)c3cc([N+](=O)[O-])cc([N+](=O)[O-])c3)C2)cc1
MIC [6]: 20 µM (≈ 8.03 µg/mL)

Cc1ccnc(NC(=O)c2ccsc2NC(=O)c2ccn3cnnc3c2)n1
IC50 (Cytochrome P450 2C9): > 50000 nM | IC50 [2]: 30 nM

Nc1cc(C(=O)NCCOCc2cccc(Cl)c2)cc([N+](=O)[O-])c1
MIC [6]: > 20 µM

Cc1nc2cc(Br)cc([N+](=O)[O-])c2nc1-c1ccccc1
MIC [7]: 3.1 µM (≈ 1.07 µg/mL)

O=c1nc(N2CCN(CC3CCCCC3)CC2)sc2c(-n3cccc3)cc(C(F)(F)F)cc12
MIC [1]: 0.16 µg/mL (≈ 0.336 µM)

O=C(NCCOCc1cccc(Cl)c1)c1cccc([N+](=O)[O-])c1
MIC [6]: > 20 µM

Cc1ccc(C)n1-c1cc(C(F)(F)F)cc2c(=O)nc(N3CCC4(CC3)OC[C@H](C)O4)sc12
MIC [1]: 2.5 µg/mL (≈ 5.21 µM)

CCc1nc2cc(Cl)ccn2c1C(=O)NCc1ccc(N2CCN(c3ccc(F)cc3)CC2)cc1
MIC [10]: 0.017 µM | IC50 [8]: > 10000 nM | MBC [11]: > 200 µM

O=C(NCCOCc1cccc(Cl)c1)c1cc(NO)cc([N+](=O)[O-])c1
MIC [6]: > 20 µM

CCCCN1CCN(c2nc(=O)c3cc(C(F)(F)F)cc(-n4cccc4)c3s2)CC1
MIC [1]: 0.62 µg/mL (≈ 1.42 µM)

N#Cc1ccc(CNc2nc3cc(C(F)(F)F)ccc3nc2C(=O)O)cc1
MIC99 [7]: 50 µM (≈ 18.6 µg/mL) | IC50 [8]: 67 nM

COC(=O)c1ccc(O[C@H]2CCN(C(=O)c3cc([N+](=O)[O-])cc([N+](=O)[O-])c3)C2)cc1
MIC [6]: > 20 µM

C[C@H]1COC2(CCN(c3nc(=O)c4cc(C(F)(F)F)cc([N+](=O)[O-])c4s3)CC2)O1 [BTZ-043]
MIC [5]: 0.001 µg/mL (≈ 0.00232 µM)

Cc1nc2c([N+](=O)[O-])cc(C(F)(F)F)cc2nc1-c1ccccc1
MIC [7]: 6.25 µM (≈ 2.08 µg/mL)

Cc1c(CCC(=O)N2CCCC2)c(=O)n2c([nH]c3ccccc32)c1C#N
IC50 [12]: 70 nM | Ratio IC50 [13]: 36

O=C(C1CCN(c2nnc(-n3cccc3)s2)CC1)N1CCC(Cc2ccccc2)CC1
IC50 [14]: 54 nM | Kd [15]: 250 nM

O=C(O)c1nc2ccc(C(F)(F)F)cc2nc1NCc1ccc(F)cc1
MIC99 [7]: 12.5 µM (≈ 4.57 µg/mL) | IC50 [8]: 72 nM

O=C(O)c1nc2ccc(C(F)(F)F)cc2nc1NCc1ccc(C(F)(F)F)cc1
MIC99 [7]: 6.3 µM (≈ 2.62 µg/mL) | IC50 [8]: 120 nM

CCOC(=O)c1nc2ccc(C(F)(F)F)cc2nc1NCc1ccc(OC)cc1
MIC99 [7]: 3.1 µM (≈ 1.26 µg/mL) | inhibition [16]: 54%

O=C(NCCOc1ccccc1F)c1cc([N+](=O)[O-])cc([N+](=O)[O-])c1
MIC [6]: 0.7 µM (≈ 0.244 µg/mL)

CCOc1ccc(CNc2nc3cc(C(F)(F)F)ccc3nc2C(=O)O)cc1
MIC99 [7]: 3.1 µM (≈ 1.21 µg/mL) | IC50 [8]: 88 nM

COc1ccc(CNc2nc3cc(C(F)(F)F)ccc3nc2C(=O)O)cc1
MIC99 [7]: 3.1 µM (≈ 1.17 µg/mL) | IC50 [8]: 41 nM

CC(C)(C)c1ccc(Cn2cnc([N+](=O)[O-])n2)cc1
IC90 [17]: 500 nM

NNC(=O)c1ccncc1 [ISONIAZID]
MIC [5]: 20 to 200 µg/mL (≈ 146 to 1460 µM)

O=C(NCCOCc1cccc(C(F)(F)F)c1)c1cc([N+](=O)[O-])cc([N+](=O)[O-])c1
MIC [6]: 0.2 µM (≈ 0.0827 µg/mL)

COc1ccc(OCCNC(=O)c2cc([N+](=O)[O-])cc([N+](=O)[O-])c2)cc1
MIC [6]: 0.2 µM (≈ 0.0723 µg/mL) | fold change (FC) [18]: 10 | fold change (FC) [19]: 10

From ChEMBL document CHEMBL4371005, “Overview of the Development of DprE1 Inhibitors for Combating the Menace of Tuberculosis” (J Med Chem, 2018)
